In US20160220557A1, “USE OF ACETYL-COA CARBOXYLASE INHIBITORS FOR TREATING ACNE VULGARIS” (PFIZER INC., priority 2013, published 2016):

How the values were obtained:
[1] = target: T1, recombinant human ACC2 (rhACC2) (Homo sapiens, UniProt O00763, V2141I); assay: Transcreener ADP detection FP assay, recombinant human ACC2 inhibition; format: biochemical; conditions: recombinant human ACC2, 50 μM ATP; read-out: Transcreener Assay hACC2 IC50
T1 construct: made in house; host or cells: CHO cells, tetracycline-induced (pcDNA5 FRT TO-TOPO)

[2] = system: SZ95 human sebocyte cells; assay: Inhibition of de novo lipogenesis (14C-acetate incorporation) in cultured human sebocytes; format: cell-based; conditions: for IC50: Homo sapiens, SZ95 sebocytes, 14C-acetate incorporation into lipids relative to vehicle, read-out: C9302E Sebocyte IC50
Description: SZ95 sebocytes were grown in Human Sebocyte Growth Medium (HSGM) (Sebomed® medium (Biochrom: F8205) supplemented with 10% heat-inactivated fetal bovine serum, 1% penicillin/streptomycin, 1 mM calcium chloride and 5 ng/mL recombinant human epidermal growth factor (Life Tech: PHG0311)). At 90% confluence, cells were washed three times with PBS and then detached with 0.05% Trypsin-EDTA. Cells were centrifuged and resuspended in HSGM containing 10% charcoal-stripped serum (Life Tech: 12676-029). Cells were then plated in 24-well plates at a density of 0.25×10^6 cells/well and were incubated overnight to enable cell adherence to the culture plate.
Cells were treated with a dose response of compound, and each dose was assayed in triplicate. Briefly, compounds were dissolved in DMSO stocks and diluted 1:1000 into charcoal-stripped media. 0.1% DMSO without compound was used as the vehicle control. After a 1 hour preincubation with compound or vehicle, 0.25 μCi ^14C-acetic acid (American Radiolabeled Chemicals: ARC0158B) was added to each well. Plates were then incubated for an additional two hours. At the end of the incubation period, cells were removed from incubator, placed on ice, and then washed twice with ice-cold PBS to remove free ^14C-acetic acid. Plates were sealed and stored at −20° C. until analysis.
Plates were shaken for 1 hour at room temperature to induce lysis. Lysates were transferred to individual 1.5 mL polypropylene tubes, and wells were washed with 175 μl of PBS, which was added to lysates. 450 μl of a 1:1 (v/v) chloroform:methanol solution was then added to each tube, and then all tubes were vortexed for 10 seconds and centrifuged at 20,000×g for 5 minutes at room temperature to separate aqueous from organic phase. A 25 μl aliquot was removed from the bottom organic layer of each sample and added to 6 mL OptiPhase supermix (PerkinElmer: 1200-439) scintillation fluid. Counts of ^14C incorporated into lipids were assessed by scintillation counting. DNL (counts of ^14C incorporated into lipids) was expressed for compound treated cells relative to DNL in the vehicle control treated cells for determination of EC50 values. For a subset of the compounds tested, a second aliquot (3×35 μl) of the organic layer of each sample was removed and applied to a TLC lane (Analtech Silica Gel G Plates). Radiolabeled lipids were resolved using a 2-solvent system. Solvent 1 contained a 100:100:100:40:36 mixture of ethyl acetate:isopropyl alcohol:CHCl3:MeOH:0.25% KCl and solvent 2 a 70:27:3 hexane:diethyl ether:acetic acid mix. The TLC plate was dried under nitrogen for 30 minutes and [^14C]-calibrators added to a vacant lane. Bands were visualized and quantitated using a Molecular Dynamics' Storm 860 Phosphorimager system following 18-36 hours exposure to a Phosphorimager screen.

hACC1 = hACC1 (Homo sapiens, UniProt Q13085); assay: Radiometric ACC1 inhibition assay; format: biochemical
hACC2 = hACC2 (Homo sapiens, UniProt O00763); assay: Radiometric ACC2 inhibition assay; format: biochemical
Sequence of hACC2 (O00763 whole entry): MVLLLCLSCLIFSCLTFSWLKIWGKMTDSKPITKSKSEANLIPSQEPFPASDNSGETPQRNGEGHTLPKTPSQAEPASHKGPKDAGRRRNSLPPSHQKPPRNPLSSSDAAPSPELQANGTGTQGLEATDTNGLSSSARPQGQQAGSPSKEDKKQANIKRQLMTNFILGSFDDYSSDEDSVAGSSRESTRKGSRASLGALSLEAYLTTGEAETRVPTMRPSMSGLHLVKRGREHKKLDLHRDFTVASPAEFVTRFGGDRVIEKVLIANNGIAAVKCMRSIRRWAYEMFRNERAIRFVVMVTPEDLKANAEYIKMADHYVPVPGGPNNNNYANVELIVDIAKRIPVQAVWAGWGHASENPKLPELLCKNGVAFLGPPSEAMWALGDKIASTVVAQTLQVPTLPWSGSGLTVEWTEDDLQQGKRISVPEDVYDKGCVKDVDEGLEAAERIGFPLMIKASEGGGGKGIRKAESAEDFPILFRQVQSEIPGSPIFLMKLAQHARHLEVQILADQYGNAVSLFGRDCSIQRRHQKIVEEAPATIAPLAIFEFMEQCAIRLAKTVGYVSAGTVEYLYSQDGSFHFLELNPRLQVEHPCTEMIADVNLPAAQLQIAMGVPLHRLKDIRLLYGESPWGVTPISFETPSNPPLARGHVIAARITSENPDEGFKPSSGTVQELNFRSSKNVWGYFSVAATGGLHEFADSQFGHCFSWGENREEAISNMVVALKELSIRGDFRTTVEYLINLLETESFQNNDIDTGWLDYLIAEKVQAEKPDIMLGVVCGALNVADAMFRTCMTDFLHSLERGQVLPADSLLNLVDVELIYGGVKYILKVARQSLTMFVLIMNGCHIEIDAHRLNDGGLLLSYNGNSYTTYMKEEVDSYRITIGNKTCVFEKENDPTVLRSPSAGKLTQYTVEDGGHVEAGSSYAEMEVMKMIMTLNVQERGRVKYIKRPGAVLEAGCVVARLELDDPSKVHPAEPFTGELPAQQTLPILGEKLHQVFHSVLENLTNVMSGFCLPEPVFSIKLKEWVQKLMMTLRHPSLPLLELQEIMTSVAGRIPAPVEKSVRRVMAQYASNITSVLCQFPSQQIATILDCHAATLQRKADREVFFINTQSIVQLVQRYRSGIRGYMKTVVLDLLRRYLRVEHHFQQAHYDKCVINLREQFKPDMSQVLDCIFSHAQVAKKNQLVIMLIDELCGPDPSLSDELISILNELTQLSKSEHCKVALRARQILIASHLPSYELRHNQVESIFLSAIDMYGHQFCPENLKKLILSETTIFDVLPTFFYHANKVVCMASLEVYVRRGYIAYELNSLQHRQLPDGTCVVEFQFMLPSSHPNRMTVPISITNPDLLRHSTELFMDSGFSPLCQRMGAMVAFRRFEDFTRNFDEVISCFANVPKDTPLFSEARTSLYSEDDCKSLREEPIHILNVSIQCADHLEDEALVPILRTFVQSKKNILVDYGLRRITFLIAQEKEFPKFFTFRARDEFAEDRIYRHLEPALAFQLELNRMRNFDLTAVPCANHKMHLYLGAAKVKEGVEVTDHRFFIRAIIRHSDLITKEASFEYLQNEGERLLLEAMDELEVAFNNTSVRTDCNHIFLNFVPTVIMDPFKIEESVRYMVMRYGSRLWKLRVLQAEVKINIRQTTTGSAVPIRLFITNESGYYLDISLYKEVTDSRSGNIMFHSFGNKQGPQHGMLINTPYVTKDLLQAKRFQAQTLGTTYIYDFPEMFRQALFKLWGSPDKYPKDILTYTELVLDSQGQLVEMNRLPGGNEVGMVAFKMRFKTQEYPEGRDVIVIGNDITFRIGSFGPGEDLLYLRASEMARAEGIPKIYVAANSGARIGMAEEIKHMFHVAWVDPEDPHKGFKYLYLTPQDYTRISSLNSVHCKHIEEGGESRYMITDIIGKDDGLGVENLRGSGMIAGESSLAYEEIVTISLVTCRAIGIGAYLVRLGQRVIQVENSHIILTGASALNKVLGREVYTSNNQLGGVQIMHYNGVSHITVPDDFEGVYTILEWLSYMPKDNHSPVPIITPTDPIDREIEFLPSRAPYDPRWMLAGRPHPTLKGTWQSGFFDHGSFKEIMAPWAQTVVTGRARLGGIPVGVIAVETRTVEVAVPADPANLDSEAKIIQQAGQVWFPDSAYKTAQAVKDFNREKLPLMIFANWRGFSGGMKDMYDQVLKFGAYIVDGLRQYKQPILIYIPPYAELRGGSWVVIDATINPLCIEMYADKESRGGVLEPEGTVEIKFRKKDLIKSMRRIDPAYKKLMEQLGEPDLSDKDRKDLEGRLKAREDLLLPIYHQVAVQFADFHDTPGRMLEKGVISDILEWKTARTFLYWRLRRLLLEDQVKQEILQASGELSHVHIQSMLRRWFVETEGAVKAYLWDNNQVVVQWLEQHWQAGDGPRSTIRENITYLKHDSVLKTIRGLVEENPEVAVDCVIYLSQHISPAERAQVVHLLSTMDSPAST

CYP2D6 = target: T2, CYP2D6 (Homo sapiens, UniProt P10635); assay: P450 inhibition in liver microsomes with probe substrates; format: in vitro ADME
T2 construct: from tissue; host or cells: liver microsomes
T2 sequence (P10635 whole entry): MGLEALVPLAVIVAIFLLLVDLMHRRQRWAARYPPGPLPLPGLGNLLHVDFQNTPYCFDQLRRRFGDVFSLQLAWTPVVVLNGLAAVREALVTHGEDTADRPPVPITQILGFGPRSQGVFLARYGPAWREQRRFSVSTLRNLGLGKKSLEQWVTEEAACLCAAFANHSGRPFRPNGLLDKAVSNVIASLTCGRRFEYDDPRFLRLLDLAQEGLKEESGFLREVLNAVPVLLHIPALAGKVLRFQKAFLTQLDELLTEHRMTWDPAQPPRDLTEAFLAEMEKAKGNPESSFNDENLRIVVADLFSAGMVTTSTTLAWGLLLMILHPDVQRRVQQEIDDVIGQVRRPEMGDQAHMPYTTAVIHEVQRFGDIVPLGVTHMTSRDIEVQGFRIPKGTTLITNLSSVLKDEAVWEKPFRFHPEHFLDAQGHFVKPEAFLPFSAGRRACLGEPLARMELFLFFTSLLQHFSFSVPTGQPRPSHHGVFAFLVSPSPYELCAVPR

[3] = Human studies: safety, tolerability and pharmacokinetics after oral dosing; conditions: for median Tmax: oral

Question: Which IC50 [1] does the source give for `Cc1nc2ccc(C(=O)N3CCC4(CC3)CC(=O)c3c(cnn3C(C)C)C4)cc2[nH]1` [Example 1, 1-isopropyl-1′-(2-methyl-1H-benzo[d]imidazole-5-carbonyl)-4,6-dihydrospiro[indazole-5,4′-piperidin]-7(1H)-one] here?
Answer: 45 nM

Question: What about the IC50 [2] of the same molecule?
Answer: 679 nM

Question: And the IC50 (hACC1)?
Answer: 11 nM

Question: What about the IC50 (hACC2) of the same molecule?
Answer: 27 nM

Question: What about the IC50 (CYP2D6) of the same molecule?
Answer: > 30000 nM

Question: And the “median Tmax” value ([3]; fasted state)?
Answer: 1 to 2 h

Question: And the “median Tmax” value ([3]; fed state)?
Answer: 3 to 4 h

Question: What about the maximum tolerated dose ([3]; single doses up to 800 mg, repeated doses up to 400 mg/day) of the same molecule?
Answer: not established

Question: What does the source list for `CC(C)n1ncc2c1C(=O)CC1(CCN(C(=O)c3ccc4ccc(N)nc4c3)CC1)C2` [Example 3, 1′-(2-aminoquinoline-7-carbonyl)-1-isopropyl-4,6-dihydrospiro[indazole-5,4′-piperidin]-7(1H)-one]?
Answer: IC50 [2]: 90 nM; incorporation of 14C-acetate into free cholesterol ([2]; SZ95 cells, TLC, vs. vehicle): did not alter; incorporation of 14C-acetate into SZ95 cell lipid species containing or comprised of fatty acids ([2]; TLC, cholesterol esters, triglycerides, free fatty acids, diglycerides, monoglyceride, phospholipid, vs. vehicle): clear inhibition; IC50 (hACC1): 5 nM; IC50 (hACC2): 5 nM
